From paper PMC5218480 (PLoS ONE, 2017)

Tested on: MV-4-11 cells
Assay: Gene expression microarray analysis (Affymetrix PrimeView) and GSEA
Format: cell-based, human
Set-up: RFU PODN (11730768_x_at) / Fold change /veh PODN (11730768_x_at) / RFU LINC00158 (11744669_a_at) / Fold change /veh LINC00158 (11744669_a_at) / RFU DUSP10 (11751237_a_at) / Fold change /veh DUSP10 (11751237_a_at) / RFU ID3 (11757404_x_at) / Fold change /veh ID3 (11757404_x_at) / RFU PLEKHG5 (11737974_s_at) / Fold change /veh PLEKHG5 (11737974_s_at) / RFU LRRC4B (11730491_at) / Fold change /veh LRRC4B (11730491_at) / RFU GIMAP4 (11747438_a_at) / Fold change /veh GIMAP4 (11747438_a_at) / RFU KRT8 (11758183_x_at) / Fold change /veh KRT8 (11758183_x_at) / RFU CNN1 (11734310_a_at) / Fold change /veh CNN1 (11734310_a_at) / RFU VPS37D (11726825_at) / Fold change /veh VPS37D (11726825_at) / RFU C10orf10 (11716522_x_at) / Fold change /veh C10orf10 (11716522_x_at) / RFU KIR2DL2 /// KIR2DL4 /// KIR2DL5A /// KIR2DL5B /// KIR2DS1 /// KIR2DS2 /// KIR2DS3 /// KIR2DS4 /// KIR3DL3 /// KIR3DL3 /// KIR3DS1 (11738374_at) / Fold change /veh KIR2DL2 /// KIR2DL4 /// KIR2DL5A /// KIR2DL5B /// KIR2DS1 /// KIR2DS2 /// KIR2DS3 /// KIR2DS4 /// KIR3DL3 /// KIR3DL3 /// KIR3DS1 (11738374_at) / RFU C1QL1 (11718748_at) / Fold change /veh C1QL1 (11718748_at) / RFU TMPRSS4 (11747572_a_at) / Fold change /veh TMPRSS4 (11747572_a_at) / RFU HAMP (11756126_x_at) / Fold change /veh HAMP (11756126_x_at) / RFU RNFT2 (11725882_a_at) / Fold change /veh RNFT2 (11725882_a_at) / RFU NR4A2 (11747474_a_at) / Fold change /veh NR4A2 (11747474_a_at) / RFU ABCC12 (11746883_a_at) / Fold change /veh ABCC12 (11746883_a_at) / RFU TMEM136 (11760407_x_at) / Fold change /veh TMEM136 (11760407_x_at) / RFU CLDN22 /// WWC2 (11732394_at) / Fold change /veh CLDN22 /// WWC2 (11732394_at) / RFU HLA-DPB1 (11760878_x_at) / Fold change /veh HLA-DPB1 (11760878_x_at) / RFU SPINT1 (11716480_a_at) / Fold change /veh SPINT1 (11716480_a_at) / RFU GAP43 (11754022_s_at) / Fold change /veh GAP43 (11754022_s_at) / RFU A4GNT (11735810_at) / Fold change /veh A4GNT (11735810_at) / RFU PRB3 (11715151_x_at) / Fold change /veh PRB3 (11715151_x_at) / RFU TUBB4B (11761932_at) / Fold change /veh TUBB4B (11761932_at) / RFU CAPN14 (11732068_a_at) / Fold change /veh CAPN14 (11732068_a_at) / RFU TMCC2 (11721928_a_at) / Fold change /veh TMCC2 (11721928_a_at) / RFU IRGQ (11745062_a_at) / Fold change /veh IRGQ (11745062_a_at) / RFU FAM174B (11720279_a_at) / Fold change /veh FAM174B (11720279_a_at) / RFU TMPRSS4 (11748680_a_at) / Fold change /veh TMPRSS4 (11748680_a_at) / RFU FAM212B (11763350_a_at) / Fold change /veh FAM212B (11763350_a_at) / RFU PLEKHG5 (11743358_a_at) / Fold change /veh PLEKHG5 (11743358_a_at) / RFU ZSCAN30 (11745921_a_at) / Fold change /veh ZSCAN30 (11745921_a_at) / RFU CMKLR1 (11741424_a_at) / Fold change /veh CMKLR1 (11741424_a_at) / RFU LOC101060620 /// MAPK8IP1 (11723275_at) / Fold change /veh LOC101060620 /// MAPK8IP1 (11723275_at) / RFU SPTSSB (11747773_x_at) / Fold change /veh SPTSSB (11747773_x_at) / RFU PRSS12 (11739890_at) / Fold change /veh PRSS12 (11739890_at) / RFU BIN1 (11741810_x_at) / Fold change /veh BIN1 (11741810_x_at) / RFU WNT11 (11732464_a_at) / Fold change /veh WNT11 (11732464_a_at) / RFU C10orf10 (11716521_a_at) / Fold change /veh C10orf10 (11716521_a_at) / RFU C5orf56 (11738089_at) / Fold change /veh C5orf56 (11738089_at) / RFU CYB561 (11721691_x_at) / Fold change /veh CYB561 (11721691_x_at) / RFU ANKRD19P (11752326_a_at) / Fold change /veh ANKRD19P (11752326_a_at) / RFU OR2T12 /// OR2T33 /// OR2T8 (11738714_s_at) / Fold change /veh OR2T12 /// OR2T33 /// OR2T8 (11738714_s_at) / RFU VCAN (11748164_a_at) / Fold change /veh VCAN (11748164_a_at) / RFU JSRP1 (11732532_at) / Fold change /veh JSRP1 (11732532_at) / RFU KRTAP10-11 (11738290_x_at) / Fold change /veh KRTAP10-11 (11738290_x_at) / RFU MYO3A (11730013_a_at) / Fold change /veh MYO3A (11730013_a_at) / RFU EBF3 (11725865_a_at) / Fold change /veh EBF3 (11725865_a_at) / RFU CAMK2N1 (11719241_x_at) / Fold change /veh CAMK2N1 (11719241_x_at) / RFU C5orf56 (11738088_a_at) / Fold change /veh C5orf56 (11738088_a_at) / RFU OLFML3 (11715873_a_at) / Fold change /veh OLFML3 (11715873_a_at) / RFU LOC100653217 /// NTM (11731650_a_at) / Fold change /veh LOC100653217 /// NTM (11731650_a_at) / RFU MAPK11 (11762145_a_at) / Fold change /veh MAPK11 (11762145_a_at) / RFU FIZ1 (11724087_x_at) / Fold change /veh FIZ1 (11724087_x_at) / RFU OASL (11726364_x_at) / Fold change /veh OASL (11726364_x_at) / RFU SOX15 (11748057_x_at) / Fold change /veh SOX15 (11748057_x_at) / RFU CD79A (11719716_a_at) / Fold change /veh CD79A (11719716_a_at) / RFU HIST1H1D (11736915_at) / Fold change /veh HIST1H1D (11736915_at) / RFU CASKIN2 (11723855_a_at) / Fold change /veh CASKIN2 (11723855_a_at) / RFU LOC730098 (11760151_x_at) / Fold change /veh LOC730098 (11760151_x_at) / RFU OR4N2 (11742367_at) / Fold change /veh OR4N2 (11742367_at) / RFU PRRT2 (11749266_a_at) / Fold change /veh PRRT2 (11749266_a_at) / RFU SNX32 (11753110_a_at) / Fold change /veh SNX32 (11753110_a_at) / RFU CDHR5 (11726645_a_at) / Fold change /veh CDHR5 (11726645_a_at) / RFU RCAN1 (11760418_a_at) / Fold change /veh RCAN1 (11760418_a_at) / RFU FAM167A (11723789_a_at) / Fold change /veh FAM167A (11723789_a_at) / RFU FAM26E (11764081_at) / Fold change /veh FAM26E (11764081_at) / RFU ISYNA1 (11749810_s_at) / Fold change /veh ISYNA1 (11749810_s_at) / RFU ACY1 (11761880_at) / Fold change /veh ACY1 (11761880_at) / RFU 11764098_at / Fold change /veh 11764098_at / RFU SAMD14 (11745864_x_at) / Fold change /veh SAMD14 (11745864_x_at) / RFU NPB (11741838_a_at) / Fold change /veh NPB (11741838_a_at) / RFU TMPRSS6 (11731388_a_at) / Fold change /veh TMPRSS6 (11731388_a_at) / RFU KRTAP10-2 (11738614_at) / Fold change /veh KRTAP10-2 (11738614_at) / RFU ARHGAP8 /// PRR5-ARHGAP8 (11727945_x_at) / Fold change /veh ARHGAP8 /// PRR5-ARHGAP8 (11727945_x_at) / RFU KRTAP5-7 /// NADSYN1 (11734609_at) / Fold change /veh KRTAP5-7 /// NADSYN1 (11734609_at) / RFU RASL12 (11751679_a_at) / Fold change /veh RASL12 (11751679_a_at) / RFU CDKN2B (11736163_a_at) / Fold change /veh CDKN2B (11736163_a_at) / RFU PRF1 (11729649_at) / Fold change /veh PRF1 (11729649_at) / RFU, ZNF638 /// ZNF638-IT1 / Fold change vs veh, ZNF638 /// ZNF638-IT1 / RFU, PANK3 / Fold change vs veh, PANK3 / RFU, SH3YL1 / Fold change vs veh, SH3YL1 / RFU, ZEB2 / Fold change vs veh, ZEB2 / RFU, NRIP1 / Fold change vs veh, NRIP1 / RFU, PTTG1IP / Fold change vs veh, PTTG1IP / RFU, CAPN2 / Fold change vs veh, CAPN2 / RFU, MED14 / Fold change vs veh, MED14 / RFU, SNORA58 / Fold change vs veh, SNORA58 / RFU, C1orf63 / Fold change vs veh, C1orf63 / RFU, LRRFIP1 / Fold change vs veh, LRRFIP1 / RFU, NDUFAF7 / Fold change vs veh, NDUFAF7 / RFU, SLC12A2 / Fold change vs veh, SLC12A2 / RFU, IBTK / Fold change vs veh, IBTK / RFU, ESF1 / Fold change vs veh, ESF1 / Fold change vs veh, TMEM50B / RFU, TAOK1 / Fold change vs veh, TAOK1 / RFU, ACBD3 / Fold change vs veh, ACBD3 / RFU, TMA16 / Fold change vs veh, TMA16 / RFU, RWDD3 / Fold change vs veh, RWDD3 / RFU, BCAT1 / Fold change vs veh, BCAT1 / RFU, EDEM3 / Fold change vs veh, EDEM3 / RFU, TMEM33 / Fold change vs veh, TMEM33 / RFU, WDR75 / Fold change vs veh, WDR75 / RFU, AHCTF1 / Fold change vs veh, AHCTF1 / RFU, TFRC / Fold change vs veh, TFRC / RFU, ZDHHC17 / Fold change vs veh, ZDHHC17 / RFU, NOM1 / Fold change vs veh, NOM1 / RFU, ARL8B / Fold change vs veh, ARL8B / RFU, ZBTB11 / Fold change vs veh, ZBTB11 / RFU, TAMM41 / Fold change vs veh, TAMM41 / RFU, KIAA1704 /// LOC100996395 / Fold change vs veh, KIAA1704 /// LOC100996395 / RFU, ING1 / Fold change vs veh, ING1 / RFU, TRMT61B / Fold change vs veh, TRMT61B / RFU, FUBP3 / Fold change vs veh, FUBP3 / RFU, TP53 / Fold change vs veh, TP53 / RFU, TNKS2 / Fold change vs veh, TNKS2 / RFU, ZFP14 / Fold change vs veh, ZFP14 / RFU, ACTR2 / Fold change vs veh, ACTR2 / RFU, PPP3R1 / Fold change vs veh, PPP3R1 / RFU, PIK3R1 / Fold change vs veh, PIK3R1 / RFU, HNRNPA1 / Fold change vs veh, HNRNPA1 / RFU, RNF170 / Fold change vs veh, RNF170 / RFU, ZNF28 / Fold change vs veh, ZNF28 / RFU, RNGTT / Fold change vs veh, RNGTT / RFU, OGT / Fold change vs veh, OGT / RFU, BRD1 / Fold change vs veh, BRD1 / RFU, MARS / Fold change vs veh, MARS / RFU, ZNF655 / Fold change vs veh, ZNF655 / RFU, FAHD1 / Fold change vs veh, FAHD1 / RFU, BDP1 / Fold change vs veh, BDP1 / RFU, LRRCC1 / Fold change vs veh, LRRCC1 / RFU, ARID1A / Fold change vs veh, ARID1A / RFU, ZNF146 / Fold change vs veh, ZNF146 / RFU, ZNF330 / Fold change vs veh, ZNF330 / RFU, GPN3 / Fold change vs veh, GPN3 / RFU, C9orf123 / Fold change vs veh, C9orf123 / RFU, N4BP2L2 / Fold change vs veh, N4BP2L2 / RFU, ARFIP1 / Fold change vs veh, ARFIP1 / RFU, FAM179B / Fold change vs veh, FAM179B / RFU, BCL10 / Fold change vs veh, BCL10 / RFU, UHRF1BP1L / Fold change vs veh, UHRF1BP1L / RFU, BET1 / Fold change vs veh, BET1 / RFU, CNOT2 / Fold change vs veh, CNOT2 / RFU, ZNF268 / Fold change vs veh, ZNF268 / Fold change vs veh, ZNF507 / RFU, DGCR2 / Fold change vs veh, DGCR2 / RFU, WDSUB1 / Fold change vs veh, WDSUB1 / Fold change vs veh, HSP90B1 /// MIR3652 / RFU, ADSS / Fold change vs veh, ADSS / RFU, GK / Fold change vs veh, GK / RFU, ZNF148 / Fold change vs veh, ZNF148 / RFU, TAF9 / Fold change vs veh, TAF9 / RFU, SLC1A5 / Fold change vs veh, SLC1A5 / RFU, SLMO2 / Fold change vs veh, SLMO2 / RFU, ABCC4 / Fold change vs veh, ABCC4 / RFU, LOC101060439 /// RAP1B / Fold change vs veh, LOC101060439 /// RAP1B / RFU, RFX7 / Fold change vs veh, RFX7 / RFU, GTPBP10 / Fold change vs veh, GTPBP10 / RFU, CNEP1R1 / Fold change vs veh, CNEP1R1 / RFU, BIVM-ERCC5 /// ERCC5 / Fold change vs veh, BIVM-ERCC5 /// ERCC5 / RFU, ILF3 / Fold change vs veh, ILF3 / RFU 11762660_at / Fold change /veh 11762660_at / RFU VCAN (11757783_s_at) / Fold change /veh VCAN (11757783_s_at) / RFU DDX43 (11728927_at) / Fold change /veh DDX43 (11728927_at) / RFU KRT8 (11758188_x_at) / Fold change /veh KRT8 (11758188_x_at) / RFU NKD1 (11759106_at) / Fold change /veh NKD1 (11759106_at) / RFU SRD5A1 (11742802_a_at) / Fold change /veh SRD5A1 (11742802_a_at) / RFU TPSAB1 /// TPSB2 (11721975_s_at) / Fold change /veh TPSAB1 /// TPSB2 (11721975_s_at) / RFU GSTM3 (11746129_a_at) / Fold change /veh GSTM3 (11746129_a_at) / RFU IL23R (11737362_x_at) / Fold change /veh IL23R (11737362_x_at) / RFU TMEM51 (11727254_a_at) / Fold change /veh TMEM51 (11727254_a_at) / RFU PIWIL2 (11732686_x_at) / Fold change /veh PIWIL2 (11732686_x_at) / RFU ORM1 (11744905_x_at) / Fold change /veh ORM1 (11744905_x_at) / RFU CCDC152 (11743942_at) / Fold change /veh CCDC152 (11743942_at) / RFU ECM1 (11717891_a_at) / Fold change /veh ECM1 (11717891_a_at) / RFU IL23R (11748794_a_at) / Fold change /veh IL23R (11748794_a_at) / RFU TNFAIP8L3 (11732012_x_at) / Fold change /veh TNFAIP8L3 (11732012_x_at) / RFU MBOAT4 (11741988_at) / Fold change /veh MBOAT4 (11741988_at) / RFU 11764193_at / Fold change /veh 11764193_at / RFU TMEM53 (11763286_at) / Fold change /veh TMEM53 (11763286_at) / RFU MAGEB2 (11727129_at) / Fold change /veh MAGEB2 (11727129_at) / RFU TMEM200A (11744735_a_at) / Fold change /veh TMEM200A (11744735_a_at) / RFU CCDC152 (11751479_a_at) / Fold change /veh CCDC152 (11751479_a_at) / RFU FAM211A (11726209_a_at) / Fold change /veh FAM211A (11726209_a_at) / RFU RGS16 (11746705_a_at) / Fold change /veh RGS16 (11746705_a_at) / RFU VCAN (11755009_s_at) / Fold change /veh VCAN (11755009_s_at) / RFU RHOB (11743442_s_at) / Fold change /veh RHOB (11743442_s_at) / RFU RGS16 (11720943_a_at) / Fold change /veh RGS16 (11720943_a_at) / RFU RGS16 (11720944_at) / Fold change /veh RGS16 (11720944_at) / RFU, VPS4B / Fold change vs veh, VPS4B / RFU, CREB1 / Fold change vs veh, CREB1 / RFU, DNAJC13 / Fold change vs veh, DNAJC13 / RFU, GNAQ / Fold change vs veh, GNAQ / RFU, CDK5R1 / Fold change vs veh, CDK5R1 / RFU, ZRANB3 / Fold change vs veh, ZRANB3 / RFU, CUL4A / Fold change vs veh, CUL4A / RFU, CCNY / Fold change vs veh, CCNY / RFU, UFL1 / Fold change vs veh, UFL1 / RFU, COG3 / Fold change vs veh, COG3 / RFU, DIAPH2 / Fold change vs veh, DIAPH2 / RFU, SKA2 / Fold change vs veh, SKA2 / RFU, AFF3 / Fold change vs veh, AFF3 / RFU, LMF1 / Fold change vs veh, LMF1 / RFU, IPO11 / Fold change vs veh, IPO11 / RFU, DFFB / Fold change vs veh, DFFB / RFU, FOXP1 / Fold change vs veh, FOXP1 / RFU, CARD8 / Fold change vs veh, CARD8 / RFU, STRN3 / Fold change vs veh, STRN3 / RFU, ADK / Fold change vs veh, ADK / RFU, RASSF2 / Fold change vs veh, RASSF2 / RFU, WIPF1 / Fold change vs veh, WIPF1 / RFU, LARP1B / Fold change vs veh, LARP1B / RFU, RASA1 / Fold change vs veh, RASA1 / RFU, RB1 / Fold change vs veh, RB1 / RFU, PPFIA1 / Fold change vs veh, PPFIA1 / RFU, MAT2A / Fold change vs veh, MAT2A / RFU, CCT5 / Fold change vs veh, CCT5 / RFU, WDR92 / Fold change vs veh, WDR92 / RFU, CUX1 / Fold change vs veh, CUX1 / RFU, TTC7A / Fold change vs veh, TTC7A / RFU, TMEM135 / Fold change vs veh, TMEM135 / RFU, DEPTOR / Fold change vs veh, DEPTOR / RFU, CPM / Fold change vs veh, CPM / RFU, DNAJB6 / Fold change vs veh, DNAJB6 / RFU, CACNA2D3 / Fold change vs veh, CACNA2D3 / RFU, DTX4 / Fold change vs veh, DTX4 / RFU, TFCP2 / Fold change vs veh, TFCP2 / RFU, GMCL1 /// GMCL1P1 / Fold change vs veh, GMCL1 /// GMCL1P1 / RFU, AEBP2 / Fold change vs veh, AEBP2 / RFU, SNHG1 /// SNORD22 /// SNORD25 /// SNORD26 /// SNORD27 /// SNORD28 /// SNORD29 /// SNORD31 / Fold change vs veh, SNHG1 /// SNORD22 /// SNORD25 /// SNORD26 /// SNORD27 /// SNORD28 /// SNORD29 /// SNORD31 / Fold change (Aza/veh), C12orf56 (ProbeSet 11735607_a_at) / Fold change (ACY-1035/veh), C12orf56 (ProbeSet 11735607_a_at) / Fold change (Aza/veh), FGFR1OP (ProbeSet 11751329_s_at) / Fold change (ACY-1035/veh), FGFR1OP (ProbeSet 11751329_s_at) / Fold change (Aza/veh), VPS36 (ProbeSet 11739960_a_at) / Fold change (ACY-1035/veh), VPS36 (ProbeSet 11739960_a_at) / RFU SYPL1 (11715823_x_at) / Fold change /veh SYPL1 (11715823_x_at) / RFU IGFBP7 (11715501_s_at) / Fold change /veh IGFBP7 (11715501_s_at) / RFU REEP3 (11722064_at) / Fold change /veh REEP3 (11722064_at) / RFU IGLL1 (11728026_x_at) / Fold change /veh IGLL1 (11728026_x_at): dose or concentration left out as unconfirmed
Conditions: MV-4-11 cells, 48 hours

SMILES: Nc1ccc(-c2cccs2)cc1NC(=O)c1ccc2c(c1)cc(C1CC1)n2CCN1CCOCC1 [ACY-1035]
- RFU CDHR5 (11726645_a_at): 42.85 RFU
